Results on one compound are retold here after patent US12485110B2, “Use of ergothioneine for extending lifespan or improving healthspan” (NANJING NUTRABUILDING BIO-TECH CO., LTD., priority 2022, dated 2025).

For series [1], the system named is C. elegans. Put plainly: Growth and development (growth and toxicity) assay. It is filed as in vivo. From the text: C. elegans was used in this study because it has advantages including having all the physiological properties of an animal, the ability to replicate human diseases, and a fast life cycle. The body of C. elegans is encased in a selectively permeable cuticle that only permits some compounds to be absorbed efficiently through the skin, so the most reliable mechanism for delivering compounds to the worms is through ingestion. Water-soluble compounds permeate the media and food and are readily taken up by the worms.
(§1) Making culturing plates with ergothioneine: C. elegans is usually grown in the laboratory using E. coli as a food source. Nematode Growth Medium (NGM) plates have been prepared by aseptically pouring NGM agar into petri plates. Ergothioneine was dissolved in water to make a working solution of 0.5 M and then mixed with E. coli liquid culture before seeding on NGM agar plates. The seeding spots were dried slowly, allowing ergothioneine to diffuse into the food bacteria and the agar for at least 24 hours before worms are introduced. The indicated ergothioneine dosages (0, 640 nM, 3.2 μM, 16 μM, 80 μM, 400 μM, 2 mM, and 10 mM) are based on the total volume of the plates.
High-resolution imaging and automated detection were used to precisely measure the growth rate of C. elegans worms from hatching to the first day of adulthood (total of 4 days). The C. elegans growth and development assay is highly sensitive and widely used in toxicology studies. Performing this test over a range of doses helps to identify a set of doses that have a physiological impact and exclude dose ranges that are likely too toxic to benefit lifespan.

Series [2] has as its system C. elegans. In words: Acute toxicity assay. It is filed as in vivo. The procedure:
as §1
The acute toxicity assay tests toxicity in adult worms by simulating the actual conditions of the lifespan assay. […] Second, over time worm deaths are scored to rule out doses that will likely have a negative impact on lifespan despite lacking immediate toxicity. […] Adult worms were monitored in the days immediately following exposure for early lethality or any other obvious defects.
Worms were treated with either vehicle control or ergothioneine at doses spanning a range from […] to 10 mM on media identical to what would be used in the lifespan experiment. […] Worms were examined for immediate toxic effects and then scored intermittently for survival until the start of lifespan experiment in the next step (see example 2 below). […]

In the case of `C[N+](C)(C)[C@@H](Cc1c[nH]c(=S)[nH]1)C(=O)[O-]` [Ergo, Ergothioneine], the “Number and size of worms (FIG. 1)” value in the series with C. elegans [1] (16 μM and 400 μM, L4 and day 1 adult) was “comparable number and size”. Further, the “Number of worms (FIG. 1)” value with C. elegans [1] (10 mM, L4 and day 1 adult stages) is listed as “less worms”. The “Size of young adults (FIG. 2)” value in the series with C. elegans [1] (10 mM, day 1 adult stage) was “smaller than normal”. The “Growth rate (worm size, FIG. 2)” value in the series with C. elegans [1] (concentrations up to 2 mM, day 1 adult stage) is “largely unaffected”; in the series with C. elegans [1] (concentrations up to 10 mM, L4 stage), “largely unaffected”. The “Early lethality (FIG. 3)” value in the series with C. elegans [2] (2 mM, upper end of the remaining doses) is recorded as “did not cause early lethality”; with C. elegans [2] (10 mM, day 10 post treatment, L4 stage worms, 25° C.) it was “showed an early lethality”.
